The text below walks through data of patent US9801844B2, “Methods and compositions for the treatment of cancer” (priority 2012, dated 2017).

SMILES strings stand for the structures. “And” between values parts separate entries of the source, which are not always exact repeats. Equal values may be shown once. Read-outs that look alike come from different tables or passages of the source.

Experiment [1] concerns SKOV3 (Her2 overexpressing) human ovarian cancer cells. The experiment can be described thus: MTT cell proliferation assay on SKOV3 cells. The conditions noted are these: SKOV3, 96 h. In kind it is cell-based. On the procedure: SKOV3 (Her2 overexpressing) ovarian cancer cells (ATCC, Manassas, Va.), were grown in McCoy's media (Gibco BRL Life Technologies, Inc., Rockville, Md.) containing 10% (v/v) fetal bovine serum (FBS) (Gibco BRL) at 37° C., 5% C02, plus Penn-Strep (Sigma).
The MTT [3-(4,5-dimethyl-2-thiazol)-2,5-diphenyl-2H tetrazolilum bromide] (Dojindo; Tokyo, Japan) cell proliferation assay system (Roche Diagnostic, Mannheim, Germany) was used to determine the sensitivity of the cell lines to agents. Cells were seeded at 1×10^4 cells/well in 96-well plates and allowed to attach for 24 h. The medium was replaced with fresh medium containing DMSO or compound. The cells were treated for 96 h, after which the media was replaced with fresh media; the cells were incubated with MTT reagents and the absorbance read at 650 and 575 nm. The 650 reading was subtracted from the 575 reading to correct for background absorbance.

The test system of experiment [2] is MDA-MB-453 Her2 overexpressing human breast cancer cells. The experiment is described as follows: MTT cell proliferation assay on MDA-MB-453 cells. The format is cell-based. To be noted: MDA-MB-453 cells, MTT assay; for IC50: read-out: IC50, concentration that caused 50% inhibition of cell proliferation. A general note: Formazan colour is commonly taken as a measure of viable cells.
Procedure: Cells were exposed to increasing concentrations of agents for 96 h and the number of viable cells determined by the MTT assay.

The test system of experiment [3] is MDA-MB-468 triple negative breast cancer cells. The experiment is described as follows: MTT cell proliferation assay on MDA-MB-468 cells. In kind it is cell-based, human. To be noted: Homo sapiens, MDA-MB-468, MDA-MB-468 cells, MTT assay; read-out: IC50 growth inhibition. On the procedure: MDA-MB-453 (ER negative, Her2 overexpressing), MDA-MB-468 (triple negative) and MCF7 (ER positive, Her2 low) cells, HT29 (p53 positive human colon cancer cells) (ATCC, Manassas, Va.) were grown in Dulbecco's Modified Eagle's medium (DMEM) (Gibco BRL Life Technologies, Inc., Rockville, Md.) containing 10% (v/v) fetal bovine serum (FBS) (Gibco BRL) at 37° C., 5% C02. SUM 149 (Her2 overexpressing, ER low) (the gift of Dr. R. Parsons, Columbia University Medical Center, New York, N.Y.) were cultivated in Ham's F-12 medium with 10% FBS. MCF7 and MCF7/Her2-18 (MCF7 cells transfected with a full length Her2 cDNA coding region, 45-fold increase Her2) were the kind gift of Dr. Dennis Slamon (Los Angeles, Calif.). These cells were maintained in RPMI supplemented with 10% FBS plus glutamine (1%) and PSF (1%) (Gibco, Rockville Md.).
MTT assay: the MTT {3-(4,5-dimethyl-2-thiazol)-2,5-diphenyl-2H tetrazolilum bromide} (Dojindo; Tokyo, Japan) cell proliferation assay system (Roche Diagnostic, Mannheim, Germany) was used to determine the sensitivity of the various cell lines to agents. Cells were seeded at 1×10^4 cells/well in 96-well plates and allowed to attach for 24 h. The medium was replaced with fresh medium containing DMSO or compound. The cells were treated for 96 or 120 h, after which they were incubated with MTT reagents and the absorbance read at 650 and 575 nm. For cell growth assays, the data are expressed as mean+/−standard deviation. Control and treated cells were compared using the student's t-test (p<0.05).
To determine the Combination Index (CI), cells were treated with all combinations of 4 or 5 concentrations of each of the agents tested and a solvent control. The results of the MTT assay were analyzed for possible synergistic effects using the median effect principle. Variable ratios of drugs were employees and mutually exclusive equations were assumed.

In the next experiment the target is Na+-K+-ATPase. The experiment is described as follows: Enzymatic assay of ATPase activity. The format is biochemical. To be noted: purified enzyme, in vitro; read-out: 50% inhibition, IC50 value, of Na+-K+-ATPase activity. On the procedure:
The enzymatic assay of ATPase (adenosine 5′-triphosphatase, EC 3.6.1.3) followed the Sigma Prod. No. A-7510 protocol (Sigma-Aldrich, St. Louis, Mo., USA). Agents (0.05 ml) were pipetted with ATPase (0.05 ml, 0.5 units/ml, Sigma-Aldrich, St. Louis, Mo., USA), mixed and equilibrated for 5 min at 37° C. Taussky-Shorr reagent (10 ml of 10% ammonium molybdate in 10 N H2SO4) was pipetted to 70 ml H2O, 5 g of ferrous sulfate heptahydrate was added, and the volume was brought to 100 ml with H2O. Test supernatant (0.5 ml) and H2O (0.5 ml) were mixed and incubated at 25° C., and the absorbance read at A660 nm.
To determine whether the Na+-K+-ATPase is involved in the mechanism of action of CA and curcumin, the ability of these agents to inhibit the in vitro activity of the purified enzyme was assayed.

As to `CC(=O)O[C@@H]1C[C@@]23C[C@@]24CC[C@H](O[C@@H]2OC[C@@H](O)[C@H](O)[C@H]2O)C(C)(C)[C@@H]4CC[C@H]3[C@]2(C)C[C@@H]3O[C@]4(C[C@@H](C)[C@@H]3[C@@]12C)O[C@H](O)[C@@]1(C)O[C@@H]41` [ACT, actein, reference compound], the “% cell proliferation” value came to 114.4% in experiment [1] (5 μg/ml), 116.1% in experiment [1] (10 μg/ml), 108.0% in experiment [1] (15 μg/ml) and 98.1% in experiment [1] (20 μg/ml).

With `O=C(O[C@@H]1Cc2c(O)cc(O)cc2O[C@@H]1c1cc(O)c(O)c(O)c1)c1cc(O)c(O)c(O)c1` [EGCG, reference compound], in experiment [2], the “IC50, concentration that caused 50% inhibition of cell proliferation” value was roughly 100 µg/mL and the IC50 stood at 218 µM.

Turning to `COc1cc(/C=C/C(=O)CC(=O)/C=C/c2ccc(O)c(OC)c2)ccc1O` [curcumin], the IC50 in experiment [2] (Homo sapiens) was 2 µg/mL and 5.4 µM; in experiment [3], 2.3 µg/mL and 6.2 µM; on Na+-K+-ATPase, roughly 2 µM.

Consider `Oc1ccc(C=Cc2cc(O)cc(O)c2)cc1` [resveratrol, reference compound], for which, in experiment [2] (Homo sapiens), the IC50 was 4 µg/mL and 17.5 µM.

On to `O=C(/C=C/c1ccc(O)c(O)c1)O[C@H](Cc1ccc(O)c(O)c1)C(=O)O` [rosmarinic acid, reference compound], for which, in experiment [2] (Homo sapiens), the IC50 is ~56 µg/mL and ~150 µM.
